ChEMBL document CHEMBL1141535, “Benzothiazole based inhibitors of p38alpha MAP kinase” (Bioorg Med Chem Lett, 2008)
One block for each compound: values may come before it.

Key:
PBMC = experiment: Inhibition of LPS-induced TNFalpha production in human PBMC; format: functional, cell-based
[1] = biological target: Mitogen-activated protein kinase 14 (Homo sapiens, UniProt Q16539); experiment: Inhibition of p38alpha
[2] = biological target: RAC-beta serine/threonine-protein kinase (Homo sapiens) (UniProt P31751); experiment: Inhibition of Atk2 at 10 uM
[3] = biological target: Ephrin type-B receptor 4 (Homo sapiens) (UniProt P54760); experiment: Inhibition of EphB4 at 10 uM
[4] = biological target: MAP kinase-activated protein kinase 2 (Homo sapiens) (UniProt P49137); experiment: Inhibition of MAPKAP-K2 at 10 uM
[5] = Inhibition of PKA at 10 uM
[6] = biological target: Tyrosine-protein kinase ABL1 (Homo sapiens) (UniProt P00519); experiment: Inhibition of Abl at 10 uM
[7] = biological target: Protein-tyrosine kinase 6 (Homo sapiens) (UniProt Q13882); experiment: Inhibition of Brk at 10 uM
[8] = biological target: Glycogen synthase kinase-3 alpha (Homo sapiens) (UniProt P49840); experiment: Inhibition of GSK3-alpha at 10 uM
[9] = biological target: Glycogen synthase kinase-3 beta (Homo sapiens) (UniProt P49841); experiment: Inhibition of GSK3-beta at 10 uM
Glycogen synthase kinase-3 beta (Homo sapiens), sequence (P49841 whole entry, looked up): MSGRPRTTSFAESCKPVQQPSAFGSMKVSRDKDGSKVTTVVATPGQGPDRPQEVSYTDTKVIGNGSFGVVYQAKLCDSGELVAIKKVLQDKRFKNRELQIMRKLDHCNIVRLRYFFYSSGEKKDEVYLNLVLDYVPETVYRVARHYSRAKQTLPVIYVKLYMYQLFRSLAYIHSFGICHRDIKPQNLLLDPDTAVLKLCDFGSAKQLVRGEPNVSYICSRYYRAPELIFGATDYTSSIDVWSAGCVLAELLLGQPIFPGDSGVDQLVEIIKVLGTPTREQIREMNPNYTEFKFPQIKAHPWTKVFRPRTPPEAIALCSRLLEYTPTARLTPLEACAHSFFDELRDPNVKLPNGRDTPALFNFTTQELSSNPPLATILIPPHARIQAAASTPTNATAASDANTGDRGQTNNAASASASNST

[10] = biological target: RAC-alpha serine/threonine-protein kinase (Homo sapiens) (UniProt P31749); experiment: Inhibition of Atk1 at 10 uM
[11] = biological target: Tyrosine-protein kinase Yes (Homo sapiens) (UniProt P07947); experiment: Inhibition of Yes at 10 uM
[12] = biological target: Ephrin type-A receptor 3 (Homo sapiens) (UniProt P29320); experiment: Inhibition of EphA3 at 10 uM
[13] = biological target: Serine/threonine-protein kinase Chk2 (Homo sapiens) (UniProt O96017); experiment: Inhibition of CHK2 at 10 uM
[14] = biological target: Protein kinase C gamma type (Homo sapiens) (UniProt P05129); experiment: Inhibition of PKCgamma at 10 uM
[15] = biological target: Fibroblast growth factor receptor 3 (Homo sapiens) (UniProt P22607); experiment: Inhibition of FGFR3 at 10 uM
[16] = biological target: Tyrosine-protein kinase Fes/Fps (Homo sapiens) (UniProt P07332); experiment: Inhibition of FES at 10 uM
[17] = biological target: Fibroblast growth factor receptor 2 (Homo sapiens) (UniProt P21802); experiment: Inhibition of FGFR2 at 10 uM
[18] = biological target: Mitogen-activated protein kinase 3 (Homo sapiens) (UniProt P27361); experiment: Inhibition of ERK1 at 10 uM
[19] = biological target: Ribosomal protein S6 kinase alpha-3 (Homo sapiens) (UniProt P51812); experiment: Inhibition of RSK2 at 10 uM
[20] = biological target: Serine/threonine-protein kinase Nek2 (Homo sapiens) (UniProt P51955); experiment: Inhibition of NEK2 at 10 uM
Serine/threonine-protein kinase Nek2 (Homo sapiens), sequence (P51955 whole entry): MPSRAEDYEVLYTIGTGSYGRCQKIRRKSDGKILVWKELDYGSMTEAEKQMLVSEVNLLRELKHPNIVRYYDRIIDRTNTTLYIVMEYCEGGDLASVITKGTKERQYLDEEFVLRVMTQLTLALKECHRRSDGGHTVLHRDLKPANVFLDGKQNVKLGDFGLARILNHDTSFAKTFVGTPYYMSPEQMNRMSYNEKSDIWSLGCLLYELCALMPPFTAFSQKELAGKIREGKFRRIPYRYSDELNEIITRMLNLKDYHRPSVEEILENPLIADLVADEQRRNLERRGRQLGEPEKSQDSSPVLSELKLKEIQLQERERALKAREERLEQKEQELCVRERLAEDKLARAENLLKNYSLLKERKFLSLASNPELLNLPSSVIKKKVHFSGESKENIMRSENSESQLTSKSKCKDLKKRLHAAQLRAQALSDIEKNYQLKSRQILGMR

[21] = biological target: Tyrosine-protein kinase Fgr (Homo sapiens) (UniProt P09769); experiment: Inhibition of Fgr at 10 uM
[22] = biological target: Cytoplasmic tyrosine-protein kinase BMX (Homo sapiens) (UniProt P51813); experiment: Inhibition of Bmx at 10 uM
[23] = Half life in Sprague-Dawley rat at 2 mg/kg, iv; format: ADME, organism-based; set-up: dose 2 mg/kg, route intravenous; settings: in vivo
[24] = biological target: Mitogen-activated protein kinase 1 (Homo sapiens) (UniProt P28482); experiment: Inhibition of ERK2 at 10 uM
[25] = biological target: MAP kinase-activated protein kinase 5 (Homo sapiens) (UniProt Q8IW41); experiment: Inhibition of MAPKAP-K5 at 10 uM
[26] = biological target: Proto-oncogene tyrosine-protein kinase Src (Homo sapiens) (UniProt P12931); experiment: Inhibition of Src at 10 uM
Proto-oncogene tyrosine-protein kinase Src (Homo sapiens), sequence (P12931 2-536 limits assumed): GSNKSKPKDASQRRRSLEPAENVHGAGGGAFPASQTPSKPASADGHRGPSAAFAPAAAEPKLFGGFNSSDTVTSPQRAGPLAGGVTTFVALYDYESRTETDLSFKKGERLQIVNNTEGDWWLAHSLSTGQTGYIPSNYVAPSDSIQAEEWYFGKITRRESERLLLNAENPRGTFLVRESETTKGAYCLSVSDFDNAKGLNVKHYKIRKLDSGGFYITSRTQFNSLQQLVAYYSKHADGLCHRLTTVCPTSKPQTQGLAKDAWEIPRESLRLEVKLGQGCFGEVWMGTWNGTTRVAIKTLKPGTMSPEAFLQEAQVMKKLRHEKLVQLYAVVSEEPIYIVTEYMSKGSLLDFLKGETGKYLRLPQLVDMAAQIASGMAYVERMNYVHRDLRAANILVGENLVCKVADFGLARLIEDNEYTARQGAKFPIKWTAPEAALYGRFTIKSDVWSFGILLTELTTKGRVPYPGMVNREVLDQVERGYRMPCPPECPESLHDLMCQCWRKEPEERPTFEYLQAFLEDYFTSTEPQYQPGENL

[27] = biological target: Casein kinase II subunit alpha (Homo sapiens) (UniProt P68400); experiment: Inhibition of CK2-alpha-1 at 10 uM
Casein kinase II subunit alpha (Homo sapiens), sequence (P68400 whole entry, looked up): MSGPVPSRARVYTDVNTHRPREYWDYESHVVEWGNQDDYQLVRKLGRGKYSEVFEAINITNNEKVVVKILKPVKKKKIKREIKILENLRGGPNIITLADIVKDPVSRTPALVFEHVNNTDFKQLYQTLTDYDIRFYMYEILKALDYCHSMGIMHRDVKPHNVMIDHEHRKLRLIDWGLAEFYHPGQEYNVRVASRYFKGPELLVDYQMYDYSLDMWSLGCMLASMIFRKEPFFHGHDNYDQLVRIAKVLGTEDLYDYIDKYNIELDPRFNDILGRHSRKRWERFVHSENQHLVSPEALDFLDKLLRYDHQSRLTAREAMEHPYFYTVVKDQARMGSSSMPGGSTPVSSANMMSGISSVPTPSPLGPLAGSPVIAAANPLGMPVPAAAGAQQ

[28] = biological target: Protein kinase C alpha type (Homo sapiens) (UniProt P17252); experiment: Inhibition of PKCalpha at 10 uM
[29] = biological target: Protein kinase C delta type (Homo sapiens) (UniProt Q05655); experiment: Inhibition of PKCdelta at 10 uM
[30] = biological target: Receptor-type tyrosine-protein kinase FLT3 (Homo sapiens) (UniProt P36888); experiment: Inhibition of Flt3 at 10 uM
[31] = biological target: Tyrosine-protein kinase Lyn (Homo sapiens) (UniProt P07948); experiment: Inhibition of Lyn A at 10 uM
Tyrosine-protein kinase Lyn (Homo sapiens), sequence (P07948 2-512 limits assumed): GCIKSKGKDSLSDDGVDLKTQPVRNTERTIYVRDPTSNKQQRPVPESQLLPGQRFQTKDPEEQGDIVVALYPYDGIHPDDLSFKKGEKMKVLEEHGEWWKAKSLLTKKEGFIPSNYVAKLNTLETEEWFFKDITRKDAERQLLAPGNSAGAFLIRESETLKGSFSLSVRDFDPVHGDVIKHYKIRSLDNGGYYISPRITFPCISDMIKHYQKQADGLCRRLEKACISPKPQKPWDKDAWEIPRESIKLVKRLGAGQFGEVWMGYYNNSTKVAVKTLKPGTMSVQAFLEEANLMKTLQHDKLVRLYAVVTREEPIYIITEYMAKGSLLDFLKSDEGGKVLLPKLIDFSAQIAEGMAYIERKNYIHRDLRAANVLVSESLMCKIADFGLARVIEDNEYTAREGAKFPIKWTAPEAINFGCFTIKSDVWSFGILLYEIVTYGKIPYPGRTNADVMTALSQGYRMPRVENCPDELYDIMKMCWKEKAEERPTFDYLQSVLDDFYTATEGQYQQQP

[32] = biological target: Megakaryocyte-associated tyrosine-protein kinase (Homo sapiens) (UniProt P42679); experiment: Inhibition of Hyl at 10 uM
[33] = biological target: Calcium/calmodulin-dependent protein kinase type II subunit alpha (Homo sapiens) (UniProt Q9UQM7); experiment: Inhibition of CaMK2-alpha at 10 uM
[34] = biological target: Insulin-like growth factor 1 receptor (Homo sapiens) (UniProt P08069); experiment: Inhibition of IGF1R at 10 uM
[35] = biological target: Protein kinase C beta type (Homo sapiens) (UniProt P05771); experiment: Inhibition of PKC-beta-2 at 10 uM
Protein kinase C beta type (Homo sapiens), sequence (P05771 2-671 limits assumed): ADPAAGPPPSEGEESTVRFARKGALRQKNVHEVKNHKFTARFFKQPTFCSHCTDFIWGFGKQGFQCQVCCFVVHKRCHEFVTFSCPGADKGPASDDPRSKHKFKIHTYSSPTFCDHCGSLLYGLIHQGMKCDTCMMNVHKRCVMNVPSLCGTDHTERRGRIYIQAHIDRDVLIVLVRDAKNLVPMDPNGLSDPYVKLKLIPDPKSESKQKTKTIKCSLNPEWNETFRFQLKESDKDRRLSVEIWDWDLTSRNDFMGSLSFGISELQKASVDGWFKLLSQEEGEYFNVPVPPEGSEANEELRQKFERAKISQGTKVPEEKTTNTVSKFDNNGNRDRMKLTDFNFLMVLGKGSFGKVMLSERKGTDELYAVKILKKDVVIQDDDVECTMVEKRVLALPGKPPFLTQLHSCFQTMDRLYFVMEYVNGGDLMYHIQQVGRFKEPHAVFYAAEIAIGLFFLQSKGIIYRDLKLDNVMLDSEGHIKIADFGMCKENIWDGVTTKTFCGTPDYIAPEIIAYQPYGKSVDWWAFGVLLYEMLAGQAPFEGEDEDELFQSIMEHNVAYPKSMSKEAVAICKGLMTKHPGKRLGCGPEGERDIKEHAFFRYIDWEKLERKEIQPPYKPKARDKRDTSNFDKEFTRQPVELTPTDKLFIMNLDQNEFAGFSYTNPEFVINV

[36] = biological target: Phosphorylase b kinase gamma catalytic chain, liver/testis isoform (Homo sapiens) (UniProt P15735); experiment: Inhibition of PHKG2 at 10 uM
[37] = biological target: Tyrosine-protein kinase CSK (Homo sapiens) (UniProt P41240); experiment: Inhibition of Csk at 10 uM
Tyrosine-protein kinase CSK (Homo sapiens), sequence (P41240 2-450 limits assumed): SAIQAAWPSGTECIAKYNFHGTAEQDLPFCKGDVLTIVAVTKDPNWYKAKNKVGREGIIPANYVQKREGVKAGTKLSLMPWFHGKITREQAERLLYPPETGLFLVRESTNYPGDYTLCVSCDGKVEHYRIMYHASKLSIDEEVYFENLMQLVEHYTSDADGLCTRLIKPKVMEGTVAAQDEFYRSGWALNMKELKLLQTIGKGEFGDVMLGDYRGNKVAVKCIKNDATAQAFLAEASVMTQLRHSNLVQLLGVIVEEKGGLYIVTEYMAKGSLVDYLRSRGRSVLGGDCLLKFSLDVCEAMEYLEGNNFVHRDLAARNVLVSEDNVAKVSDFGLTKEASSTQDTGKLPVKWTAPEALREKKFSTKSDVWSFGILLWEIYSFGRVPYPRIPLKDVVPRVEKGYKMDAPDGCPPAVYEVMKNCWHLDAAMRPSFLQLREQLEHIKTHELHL

[38] = Clearance in Sprague-Dawley rat at 2 mg/kg, iv; format: ADME, organism-based; set-up: dose 2 mg/kg, route intravenous; settings: in vivo
[39] = biological target: Platelet-derived growth factor receptor beta (Homo sapiens) (UniProt P09619); experiment: Inhibition of PDGFRbeta at 10 uM
[40] = Bioavailability in Sprague-Dawley rat at 5 mg/kg, po; format: ADME, organism-based; settings: in vivo
[41] = biological target: Tyrosine-protein kinase Blk (Homo sapiens) (UniProt P51451); experiment: Inhibition of Blk at 10 uM
[42] = biological target: Tyrosine-protein kinase BTK (Homo sapiens) (UniProt Q06187); experiment: Inhibition of Btk at 10 uM
[43] = biological target: Epidermal growth factor receptor (Homo sapiens) (UniProt P00533); experiment: Inhibition of EGFR at 10 uM
[44] = biological target: Protein kinase C beta type (Homo sapiens) (UniProt P05771); experiment: Inhibition of PKCbeta1 at 10 uM
[45] = AUC in Sprague-Dawley rat at 5 mg/kg, po; format: ADME, organism-based; set-up: dose 5 mg/kg, route oral; settings: plasma
[46] = biological target: Tyrosine-protein kinase Lck (Homo sapiens) (UniProt P06239); experiment: Inhibition of Lck at 10 uM
[47] = biological target: Fibroblast growth factor receptor 1 (Homo sapiens) (UniProt P11362); experiment: Inhibition of FGFR1 at 10 uM
[48] = biological target: Interleukin-1 receptor-associated kinase 4 (Homo sapiens) (UniProt Q9NWZ3); experiment: Inhibition of IRAK4 at 10 uM
Interleukin-1 receptor-associated kinase 4 (Homo sapiens), sequence (Q9NWZ3 whole entry): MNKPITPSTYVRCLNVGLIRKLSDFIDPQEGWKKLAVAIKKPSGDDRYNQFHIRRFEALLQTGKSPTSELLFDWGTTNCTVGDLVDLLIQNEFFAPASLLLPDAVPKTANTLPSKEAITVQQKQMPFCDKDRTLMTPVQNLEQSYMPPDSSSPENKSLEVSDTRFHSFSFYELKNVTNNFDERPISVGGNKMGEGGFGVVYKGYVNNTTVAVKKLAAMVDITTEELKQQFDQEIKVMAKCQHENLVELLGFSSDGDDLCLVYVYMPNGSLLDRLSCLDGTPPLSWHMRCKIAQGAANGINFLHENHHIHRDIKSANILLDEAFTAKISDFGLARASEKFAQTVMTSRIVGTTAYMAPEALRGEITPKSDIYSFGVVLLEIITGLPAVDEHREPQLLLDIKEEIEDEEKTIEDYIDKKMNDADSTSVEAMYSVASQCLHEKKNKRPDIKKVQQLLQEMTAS

[49] = biological target: Tyrosine-protein kinase Lyn (Homo sapiens) (UniProt P07948); experiment: Inhibition of Lyn B at 10 uM
[50] = biological target: Tyrosine-protein kinase HCK (Homo sapiens) (UniProt P08631); experiment: Inhibition of Hck at 10 uM
[51] = biological target: Tyrosine-protein kinase Fyn (Homo sapiens) (UniProt P06241); experiment: Inhibition of Fyn at 10 uM
[52] = biological target: RAC-gamma serine/threonine-protein kinase (Homo sapiens) (UniProt Q9Y243); experiment: Inhibition of Atk3 at 10 uM
[53] = biological target: Serine/threonine-protein kinase Chk1 (Homo sapiens) (UniProt O14757); experiment: Inhibition of CHK1 at 10 uM
[54] = biological target: Hepatocyte growth factor receptor (Homo sapiens) (UniProt P08581); experiment: Inhibition of cMET at 10 uM
[55] = biological target: MAP kinase-activated protein kinase 3 (Homo sapiens) (UniProt Q16644); experiment: Inhibition of MAPKAP-K3 at 10 uM
[56] = biological target: Fibroblast growth factor receptor 4 (Homo sapiens) (UniProt P22455); experiment: Inhibition of FGFR4 at 10 uM

Mitogen-activated protein kinase 14, sequence (Q16539 whole entry): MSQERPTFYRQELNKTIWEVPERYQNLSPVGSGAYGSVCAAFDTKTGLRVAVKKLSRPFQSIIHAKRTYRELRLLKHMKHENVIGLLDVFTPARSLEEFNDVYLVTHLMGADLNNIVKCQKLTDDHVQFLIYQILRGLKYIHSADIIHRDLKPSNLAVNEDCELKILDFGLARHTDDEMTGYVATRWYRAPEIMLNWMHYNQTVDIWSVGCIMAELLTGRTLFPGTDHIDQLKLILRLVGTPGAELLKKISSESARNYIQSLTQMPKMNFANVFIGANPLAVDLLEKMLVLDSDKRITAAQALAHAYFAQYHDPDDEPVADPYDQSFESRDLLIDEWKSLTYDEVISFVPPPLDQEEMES

IC50 [1]: 33 nM
SMILES: CC(C)Nc1nc2ccc(-c3ccnn3-c3cccc(F)c3)cc2s1
IC50 (PBMC): 171 nM

IC50 [1]: > 1000 nM
SMILES: Cc1ccc(-n2nccc2-c2ccc3nc(NC(C)C)sc3c2)cc1

IC50 [1]: 7.1 nM
SMILES: CC(C)Nc1nc2ccc(-c3[nH]cnc3-c3ccccc3)cc2s1
IC50 (PBMC): 107 nM

IC50 [1]: 10 nM
SMILES: CC[C@H](C)Nc1nc2ccc(-c3ocnc3-c3ccccc3F)cc2s1
IC50 (PBMC): 30 nM

IC50 [1]: 12 nM
SMILES: CCNc1nc2ccc(-c3ocnc3-c3ccccc3F)cc2s1
IC50 (PBMC): 167 nM

IC50 [1]: 72 nM
SMILES: CC(C)Nc1nc2ccc(-c3ccnn3-c3cccc(Cl)c3)cc2s1
IC50 (PBMC): 232 nM

inhibition [2]: < 20%
inhibition [3]: < 20%
inhibition [4]: < 20%
inhibition [5]: < 20%
inhibition [6]: 65%
inhibition [7]: < 20%
inhibition [8]: < 20%
inhibition [9]: < 20%
inhibition [10]: < 20%
inhibition [11]: < 20%
inhibition [12]: < 20%
inhibition [13]: < 20%
inhibition [14]: < 20%
inhibition [15]: < 20%
inhibition [16]: < 20%
inhibition [17]: < 20%
inhibition [18]: < 20%
inhibition [19]: < 20%
inhibition [20]: < 20%
inhibition [21]: 54%
inhibition [22]: < 20%
half-life [23]: 1.7 h
inhibition [24]: < 20%
inhibition [25]: < 20%
inhibition [26]: < 20%
inhibition [27]: < 20%
inhibition [28]: < 20%
inhibition [29]: < 20%
inhibition [30]: 68%
inhibition [31]: < 20%
inhibition [32]: < 20%
inhibition [33]: < 20%
inhibition [34]: < 20%
inhibition [35]: < 20%
inhibition [36]: < 20%
inhibition [37]: < 20%
clearance [38]: 23.3 mL/min/kg
inhibition [39]: < 20%
bioavailability [40]: 24%
inhibition [41]: < 20%
IC50 [1]: 3.2 nM
inhibition [42]: < 20%
inhibition [43]: < 20%
inhibition [44]: < 20%
AUC [45]: 2.27 µM·h
inhibition [46]: < 20%
inhibition [47]: < 20%
inhibition [48]: < 20%
inhibition [49]: < 20%
inhibition [50]: < 20%
inhibition [51]: < 20%
inhibition [52]: < 20%
inhibition [53]: < 20%
inhibition [54]: < 20%
inhibition [55]: < 20%
inhibition [56]: < 20%
SMILES: CC[C@@H](C)Nc1nc2ccc(-c3c(-c4ccccc4F)n[nH]c3N)cc2s1
IC50 (PBMC): 39 nM

IC50 [1]: 17 nM
SMILES: CC[C@@H](C)Nc1nc2ccc(-c3c(-c4ccccc4F)nn(CC)c3N)cc2s1
IC50 (PBMC): > 250 nM

IC50 [1]: 3.7 nM
SMILES: CC(C)Nc1nc2ccc(-c3c(-c4ccccc4F)n[nH]c3N)cc2s1
IC50 (PBMC): 51 nM

IC50 [1]: 1.6 nM
SMILES: CC[C@@H](C)Nc1nc2ccc(-c3[nH]cnc3-c3ccccc3F)cc2s1
IC50 (PBMC): 13 nM

IC50 [1]: 11 nM
SMILES: CC[C@@H](C)Nc1nc2ccc(-c3c(-c4ccccc4F)nn(C)c3N)cc2s1
IC50 (PBMC): 118 nM

IC50 [1]: 6.5 nM
SMILES: CC[C@@H](C)Nc1nc2ccc(-c3ocnc3-c3ccccc3F)cc2s1
IC50 (PBMC): 27 nM

IC50 [1]: 16 nM
SMILES: Nc1nc2ccc(-c3ocnc3-c3ccccc3F)cc2s1
IC50 (PBMC): 247 nM

IC50 [1]: 5.5 nM
SMILES: CC[C@H](C)Nc1nc2ccc(-c3c(-c4ccccc4F)n[nH]c3N)cc2s1
IC50 (PBMC): 77 nM

IC50 [1]: 2.7 nM
SMILES: CC[C@H](C)Nc1nc2ccc(-c3[nH]cnc3-c3ccccc3F)cc2s1
IC50 (PBMC): 20 nM

SMILES: CC(C)Nc1nc2ccc(-c3ocnc3-c3ccccc3F)cc2s1
IC50 (PBMC): 40 nM

IC50 [1]: 3.3 nM
SMILES: CC(C)Nc1nc2ccc(-c3[nH]cnc3-c3ccccc3F)cc2s1
IC50 (PBMC): 35 nM

IC50 [1]: 33 nM
SMILES: Cc1cccc(-n2nccc2-c2ccc3nc(NC(C)C)sc3c2)c1
IC50 (PBMC): 171 nM

IC50 [1]: 21 nM
SMILES: CC(C)Nc1nc2ccc(-c3ccnn3-c3ccccc3)cc2s1
IC50 (PBMC): 213 nM

IC50 [1]: 48 nM
SMILES: CC(C)Nc1nc2ccc(-c3ccnn3-c3ccc(F)cc3)cc2s1
IC50 (PBMC): > 250 nM

IC50 [1]: 175 nM
SMILES: CC(C)Nc1nc2ccc(-c3ccnn3-c3ccccc3Cl)cc2s1

IC50 [1]: 20 nM
SMILES: CC(C)Nc1nc2ccc(-c3ccnn3-c3ccccc3F)cc2s1
IC50 (PBMC): 249 nM

IC50 [1]: 21 nM
SMILES: CC(C)Nc1nc2ccc(-c3ocnc3-c3ccccc3)cc2s1
IC50 (PBMC): 96 nM

IC50 [1]: 146 nM
SMILES: Cc1ccccc1-n1nccc1-c1ccc2nc(NC(C)C)sc2c1

IC50 [1]: 47 nM
SMILES: Fc1ccccc1-c1ncoc1-c1ccc2ncsc2c1
IC50 (PBMC): > 250 nM

IC50 [1]: > 1000 nM
SMILES: CC(C)Nc1nc2ccc(-c3ccnn3-c3ccc(Cl)cc3)cc2s1
